≈ marks a conversion by molar mass, not a printed value.
Legend:
[1] = system: bile ducts (sphincter of Oddi); assay: Perfusion outflow of bile ducts (bile duct spasm by morphine); format: in vivo; conditions: i.v.; CR 605 5, CR 725 10, CR 603 12.5 mg/kg; morphine 250 μg
From the text: (§8) The results shown in this table were obtained by perfusing with a physiological solution, the stomach and the bile ducts respectively and collecting the liquid emerging after the pylorus and the sphineter of Oddi.

[2] = system: cavy ileum (histamine spasm); assay: Antispastic activity in vitro on cavy ileum, spasmiser histamine; format: cell-based; conditions: Table 2; ED50 ratio
Protocol: (§1) C. The method in vitro is that of Magnus, with the ileum of the cavy, and is in common use for all evaluations. It consists of extracting the ileum from the cavy and placing it in a receptacle which contains nutritive liquid, suitably oxygenated, and registering the movements of the organ which remains alive for several hours if maintained at a temperature of 37°. According to the traditional method followed by us, BaCl2 is put into the bath as a spasmisant: the reaction is a violent contraction of the organ. This contraction can be prevented by adding beforehand pharmaceuticals which inhibit spasms, and in this case our compounds.
(§2) The activities which have been described so far both in vitro and in vivo can be confirmed using different animals or different organs. These activities are further improved if, instead of BaCl2 other spasmisers are used, such as serotoninehistamine and oxytocine (see Table 2).
(§3) The values contained in the table are expressed as comparison between the
(§4) substance being studied, and they therefore express the activity of the
(§5) compounds compared with known, very active substances.

[3] = system: stomach and pylorus; assay: Perfusion outflow of stomach and pylorus (gastro-pyloric spasm by morphine); format: in vivo; conditions: i.v.; CR 605 5, CR 725 10, CR 603 12.5 mg/kg; morphine 250 μg
From the text: as §8

[4] = system: urinary bladder of a rat; assay: Urinary bladder movement of anaesthetised rat in vivo; conditions: for ED50: read-out: Urinary sac of rat in vivo ED50; for activity in the urinary tract tests: statement on the bladder and ureter tests of Table 3
From the text: The in vivo evaluation was made upon the urinary bladder of a rat anaesthetised and placed in an environment heated to the animals body temperature whilst the bladder which is exposed is linked to a system which registers its movement. The pharmaceutilcals were given to the animals by intravenous means.

[5] = system: rat's ureter; assay: Ureter of rat in vitro; format: cell-based; conditions: for IC50: Rattus norvegicus, read-out: Ureter of rat in vitro ED50
From the text: The in vitro evaluation was made on a rat's ureter suspended in a bath of physiological liquid according to a method similar to the Magnus method already described.

[6] = system: ileum of a cavy (BaCl2 spasm); assay: Antispastic activity in vitro, Magnus method, cavy ileum stimulated with BaCl2; format: cell-based; conditions: for Antispastic activity in vitro, cavy ileum, BaCl2 (relative to papaverine = 1): Table 2, ED50 of test substance papaverine / ED50 of compound; for Antisp. activity in vitro on the ileum of a cavy by Stim. BaCl2: ED50 pap./ED50 CR: ratio to papaverine = 1, Table 1, 37°
Protocol: as §1
The values recorded are expressed as relation between papaverine and the ED50 of our compounds. (As is known, the ED50 is the dose which results in a 50% reduction in spastic contraction).
E. I.T.2 is the therapeutic index under the profile of the antispastic activity in vitro and is given by the product between the in vitro antispastic activity index (column 4) and the corresponding DL50 (column 2).

[7] = system: intestinal transit of the charcoal; assay: Vegetable carbon (charcoal) intestinal transit test in vivo; set-up: species or system rat; conditions: for ED50: Rattus norvegicus, iv, 2 h, read-out: Antisp. activity in transit test: ED50; for ED50 / Antisp. activity in transit test: ED50: i.v., rat, charcoal test, 2 hours
Protocol: B. The vegetable carbon method in vivo (charcoal method) which consists of administering by oral means to rats, which have fasted for 24 hours, 0.3ml/per rate of a mixture consisting of: 10g of charcoal and 5 g of gum arabic suspended in a volume of 100 cc of H2 O as well as at the same time the substance being studied, accordingly as desired, generally i.v., s.c., oral. After two hours the animals are killed and those are taken to be negative in which the charcoal has reached the first portion of the colon and the others positive, in the sense that the substance administered has slowed down the intestinal transit of the charcoal.
In effect the animals treated with a physiological solution (checks) are all negative after two hours.
D. I.T.1 is the therapeutic index under the profile of the antispastic activity in vivo, and it is obtained by recording the DL50 (column 2) with the ED50 of the charcoal test (column 3).

[8] = Acute toxicity (DL50) i.v. in rat; format: in vivo; conditions: in vivo, iv, dose causing death in 50% of the animals
Protocol: (§6) In this table (n. 1) there are recorded the compounds described in the examples with their relative serial numbers, the acute toxicity, the antispastic activity observed in two experimental tests, one "in vivo" and one "in vitro". There are moreover recorded two therapeutic indices which take account of the toxicity of these compounds in relation to their in vivo and in vitro activity. More precisely:
(§7) A. DL50 which, as is known, is the quantity of the substance expressed in mg/kg of animal weight, capable of causing death in 50% of the animals treated.

[9] = system: rat uterus (oxytocine spasm); assay: Antispastic activity in vitro on rat uterus, spasmiser oxytocine; format: cell-based; conditions: Table 2; ED50 ratio
From the text: as §2, §3, §4, §5

[10] = system: cavy ileum (serotonine spasm); assay: Antispastic activity in vitro on cavy ileum, spasmiser serotonine; format: cell-based; conditions: Table 2; ED50 ratio
Protocol: as §1, §2, §3, §4, §5

[11] = system: caudal artery of a rat (electric stimulation); assay: Antispastic activity on caudal artery of rat, electrically stimulated; format: cell-based; conditions: 50% reduction of response to electric stimulation
Protocol: In another experiment the caudal artery of a rat was electrically stimulated and the pharmaceuticals were added to the bath. The activity was assessed at ED50, i.e., the quantity of pharmaceutical expressed in μg/ml of the perfusion liquid able to reduce by half the response of the electric stimulation compared with that of the checks.
Antispastic activity of some of the compounds claimed on the caudal artery of a rat, electrically stimulated: the values are expressed in ED50 (see Specification).

[12] = system: caudal artery of a rat (ergotamine tartrate contraction); assay: Antispastic activity on caudal artery of rat stimulated with ergotamine tartrate; format: cell-based; conditions: ergotamine tartrate 350 μg/ml of perfusion liquid, 50% reduction of contraction
Protocol: An in vitro evaluation of this activity was made upon the caudal artery of a rat, suspended, so that one can register the variation of internal pressure, and contracted with ergotamine tartrate put in to the arterial lumen of the said vessel with a dose of 350 μg/ml of perfusion liquid.
The spasm was antagonised with the compounds being tested. The evaluation was made with ED50, i.e., a concentration of the product in the perfusion liquid expressed as μg/ml able to reduce the contraction thus induced by 50%.
Antispastic activity of some of the claimed compounds upon the caudal artery of a rat stimulated with ergotamine tartrate: values are expressed in ED50 (see specification).

[13] = system: rat; assay: Acute toxicity (DL50) i.v. in rat; format: in vivo; conditions: dose causing death in 50% of the animals
Protocol: as §6, §7

SMILES: CCCN(CCC)C(=O)C(Cc1ccc(OCCN(CC)CC)cc1)NC(=O)c1ccccc1 (racemic) [CR 605, O-(2-diethylamino-ethyl)-N-benzoyl-DL-tyrosil-di-n-propylamide]
- Bile ducts, %age variation between the 1st and 2nd hour [1]: +21.5%
- Bile ducts, outflow after the 1st hour [1]: 46.6 mL
- Bile ducts, outflow after the 2nd hour [1]: 56.6 mL
- Antispastic activity in vitro, cavy ileum, histamine (relative to prometazine = 1) [2]: 0.17
- Stomach and pylorus, outflow after the 1st hour [3]: 131.2 mL
- Stomach and pylorus, outflow after the 2nd hour [3]: 132.9 mL
- ED50 ([4]; intravenous, anaesthetised rat): 6.25 mg/kg
- IC50 [5]: 74.2 µg/mL (≈ 159 µM)
- Antispastic activity in vitro, cavy ileum, BaCl2 (relative to papaverine = 1) [6]: 1.25
- Antisp. activity in vitro on the ileum of a cavy by Stim. BaCl2: ED50 pap./ED50 CR [6]: 1.25
- ED50 [7]: 10.6 mg/kg
- LD50 [8]: 33.9 mg/kg
- Antispastic activity in vitro, rat uterus, oxytocine (relative to papaverine = 1) [9]: 0.09
- Antispastic activity in vitro, cavy ileum, serotonine (relative to methysergide = 1) [10]: 0.69

SMILES: CCCCNC(=O)C(Cc1ccc(OCCN2CCCC2)cc1)NC(=O)c1ccc(C)cc1 (racemic) [CR 651, O-(2-pyrrolidil-N'-ethyl)-N-toluoyl-DL-tyrosil-n-butylamide]
- Antisp. activity in vitro on the ileum of a cavy by Stim. BaCl2: ED50 pap./ED50 CR [6]: 1.60
- ED50, caudal artery, electrically stimulated [11]: 19 µg/mL (≈ 42.1 µM)
- ED50, caudal artery, ergotamine tartrate [12]: 37 µg/mL (≈ 81.9 µM)
- Antisp. activity in transit test: ED50 [7]: 16.3 mg/kg
- DL50 in a rat [13]: 34.1 mg/kg

SMILES: CCCN(CCC)C(=O)C(Cc1ccc(OCCN(CC)CC)cc1)NC(=O)c1ccc(Cl)cc1 (racemic) [CR 716, O-(2-diethylamino-ethyl)-N-(p-chloro-benzoyl)-DL-tyrosil-di-n-propylamide]
- Antispastic activity in vitro, cavy ileum, histamine (relative to prometazine = 1) [2]: 0.08
- Antispastic activity in vitro, cavy ileum, BaCl2 (relative to papaverine = 1) [6]: 1.58
- Antisp. activity in vitro on the ileum of a cavy by Stim. BaCl2: ED50 pap./ED50 CR [6]: 1.58
- ED50 [7]: 26.5 mg/kg
- LD50 [8]: 56.4 mg/kg
- Antispastic activity in vitro, rat uterus, oxytocine (relative to papaverine = 1) [9]: 0.06
- Antispastic activity in vitro, cavy ileum, serotonine (relative to methysergide = 1) [10]: 0.74

SMILES: CCCN(CCC)C(=O)C(Cc1ccc(OCCCN2CCN(C)CC2)cc1)NC(=O)c1ccc(Cl)cc1 (racemic) [CR 725, O-[3-(N"-methyl-piperazine)-N'-propyl]-N-(p-chloro-benzoyl)-DL-tyrosil-di-n-propylamide]
- Bile ducts, outflow after the 1st hour [1]: 49.7 mL
- Bile ducts, outflow after the 2nd hour [1]: 53.2 mL
- Antispastic activity in vitro, cavy ileum, histamine (relative to prometazine = 1) [2]: 0.24
- Stomach and pylorus, outflow after the 1st hour [3]: 167.2 mL
- Stomach and pylorus, outflow after the 2nd hour [3]: 165.5 mL
- ED50 ([4]; intravenous, anaesthetised rat): 8.32 mg/kg
- IC50 [5]: 27.3 µg/mL (≈ 50.3 µM)
- Antispastic activity in vitro, cavy ileum, BaCl2 (relative to papaverine = 1) [6]: 3.20
- Antisp. activity in vitro on the ileum of a cavy by Stim. BaCl2: ED50 pap./ED50 CR [6]: 3.20
- ED50 [7]: 12.2 mg/kg
- LD50 [8]: 62.6 mg/kg
- Antispastic activity in vitro, rat uterus, oxytocine (relative to papaverine = 1) [9]: 0.18
- Antispastic activity in vitro, cavy ileum, serotonine (relative to methysergide = 1) [10]: 1.2

SMILES: CCCN(CCC)C(=O)C(Cc1ccc(OCCCN(C)C)cc1)NC(=O)c1ccccc1 (racemic) [CR 816, O-(3-dimethylamino-propyl)-N-benzoyl-DL-tyrosil-di-n-propylamide]
- Antisp. activity in vitro on the ileum of a cavy by Stim. BaCl2: ED50 pap./ED50 CR [6]: 2.00
- ED50, caudal artery, electrically stimulated [11]: 7 µg/mL (≈ 15.4 µM)
- ED50, caudal artery, ergotamine tartrate [12]: 12 µg/mL (≈ 26.5 µM)
- Antisp. activity in transit test: ED50 ([7]; 120 min): 5.5 mg/kg
- DL50 in a rat [13]: 16.0 mg/kg

SMILES: CN1[C@@H]2CC[C@H]1C[C@@H](OC(=O)C(CO)c1ccccc1)C2 (some centres unmarked) [Atropine, atropine, reference compound]
- activity in the urinary tract tests [4]: inactive
- Ureter of rat in vitro ED50 [5]: inactive

SMILES: CCCN(CCC)C(=O)C(Cc1ccc(OCCN(C)C)cc1)NC(=O)OCc1ccccc1 [CR 603, O-(2-dimethylamino-ethyl)-N-carbobenzoxy-L-tyrosil-di-n-propylamide]
- Bile ducts, outflow after the 1st hour [1]: 50.3 mL
- Bile ducts, outflow after the 2nd hour [1]: 48.8 mL
- Antispastic activity in vitro, cavy ileum, histamine (relative to prometazine = 1) [2]: 0.09
- Stomach and pylorus, outflow after the 1st hour [3]: 157.0 mL
- Stomach and pylorus, outflow after the 2nd hour [3]: 160.8 mL
- ED50 ([4]; intravenous, anaesthetised rat): 6.9 mg/kg
- IC50 [5]: 86 µg/mL (≈ 183 µM)
- Antispastic activity in vitro, cavy ileum, BaCl2 (relative to papaverine = 1) [6]: 2.4
- Antisp. activity in vitro on the ileum of a cavy by Stim. BaCl2: ED50 pap./ED50 CR [6]: 2.40
- IC50 ([11]; Rattus norvegicus, read-out: ED50, caudal artery, electrically stimulated): 76 µg/mL (≈ 162 µM)
- IC50 ([12]; Rattus norvegicus, read-out: ED50, caudal artery, ergotamine tartrate): 105 µg/mL (≈ 224 µM)
- ED50 [7]: 30.5 mg/kg
- LD50 [8]: 63 mg/kg
- Antispastic activity in vitro, rat uterus, oxytocine (relative to papaverine = 1) [9]: 0.008
- Antispastic activity in vitro, cavy ileum, serotonine (relative to methysergide = 1) [10]: 0.87

SMILES: CCCC[N+]1(C)C2CC(OC(=O)C(CO)c3ccccc3)CC1C1OC12 (centres unmarked) [Joscina-N-butyl-bromide]
- Urinary sac of rat in vivo ED50 ([4]; intravenous, anaesthetised rat): inactive
- activity in the urinary tract tests [4]: inactive

SMILES: CN1CC[C@]23c4c5ccc(O)c4O[C@H]2[C@@H](O)C=C[C@H]3[C@H]1C5 [Morphine, morphine, reference compound]
- Bile ducts, %age variation between the 1st and 2nd hour [1]: -48.3%
- Stomach and pylorus, %age variation between 1st and 2nd hour [3]: -54.5%

SMILES: COc1ccc(Cc2nccc3cc(OC)c(OC)cc23)cc1OC [Papaverine, papaverine, reference compound]
- ED50 ([4]; intravenous, anaesthetised rat): 7.59 mg/kg
- IC50 [5]: 45.2 µg/mL (≈ 133 µM)
- Antisp. activity in vitro on the ileum of a cavy by Stim. BaCl2: ED50 pap./ED50 CR [6]: 1
- ED50 [7]: 22.5 mg/kg
- I.T.1: DL50/ED50 in vivo ([7]; therapeutic index, DL50 / charcoal ED50, rat i.v.): 1.2
- LD50 [8]: 27.2 mg/kg
